Assay results: ChEMBL document CHEMBL3045349, “A comparative study on the interference of two herbicides in wheat and italian ryegrass and on their antioxidant activities and detoxification rates” (J Agric Food Chem, 2011)

Legend:
Lolium multiflorum [1] = experiment: Increase in antioxidant enzyme system in Lolium multiflorum (Italian ryegrass) shoots shoots assessed as increase in glutathione reductase activity compound administered at rate of 14 mf/flat measured 24 hr post treatment; assay type: functional
Lolium multiflorum [2] = experiment: Increase in antioxidant enzyme system in Lolium multiflorum (Italian ryegrass) shoots assessed as increase in ascorbate peroxidase activity compound administered at rate of 14 mf/flat measured 48 hr post treatment; assay type: functional
Lolium multiflorum [3] = experiment: Effect on antioxidant enzyme system in Lolium multiflorum (Italian ryegrass) shoots assessed as glutathione S-transferase activity per mg protein compound administered at rate of 14 mf/flat measured 24 hr post treatment (reference value: 0.34 nmol/s per mg protein); assay type: functional
Triticum aestivum [4] = experiment: Drug level in Triticum aestivum (wheat) compound administered at rate of 14 mf/flat measured 24 hr post treatment by HPLC; assay type: ADME, organism-based; conditions: in vivo
Lolium multiflorum [5] = experiment: Effect on antioxidant enzyme system in Lolium multiflorum (Italian ryegrass) shoots assessed as catalase activity per mg protein compound administered at rate of 14 mf/flat measured 24 hr post treatment (reference value: 0.13 nmol/s per mg protein); assay type: functional
Triticum aestivum [6] = experiment: Effect on antioxidant enzyme system in Triticum aestivum (wheat) shoots assessed as ascorbate peroxidase activity per mg protein compound administered at rate of 14 mf/flat measured 24 hr post treatment (reference value: 15.7 nmol/s per mg protein); assay type: functional
Triticum aestivum [7] = experiment: Increase in antioxidant enzyme system in Triticum aestivum (wheat) shoots assessed as increase in glutathione reductase activity compound administered at rate of 14 mf/flat measured 24 hr post treatment; assay type: functional
Triticum aestivum [8] = experiment: Reduction in glutathione S-transferase activity in Triticum aestivum (wheat) shoots compound administered at rate of 14 mf/flat measured 24 hr post treatment; assay type: functional; parameters: scale not given: the % may be the effect or the level left
Triticum aestivum [9] = experiment: Increase in antioxidant enzyme system in Triticum aestivum (wheat) shoots assessed as increase in ascorbate peroxidase activity compound administered at rate of 14 mf/flat measured 24 hr post treatment; assay type: functional
Lolium multiflorum [10] = experiment: Effect on antioxidant enzyme system in Lolium multiflorum (Italian ryegrass) shoots assessed as glutathione S-transferase activity per mg protein compound administered at rate of 14 mf/flat measured 48 hr post treatment (reference value: 0.35 nmol/s per mg protein); assay type: functional
Lolium multiflorum [11] = experiment: Effect on antioxidant enzyme system in Lolium multiflorum (Italian ryegrass) shoots assessed as catalase activity per mg protein compound administered at rate of 14 mf/flat measured 48 hr post treatment (reference value: 0.10 nmol/s per mg protein); assay type: functional
Lolium multiflorum [12] = experiment: Drug level in Lolium multiflorum (Italian ryegrass) compound administered at rate of 14 mf/flat measured 24 hr post treatment by HPLC; assay type: ADME, organism-based; conditions: in vivo
Triticum aestivum [13] = experiment: Effect on photosynthetic activity in Triticum aestivum (wheat) shoots assessed as leaf net photosynthesis rate measured by CO2 production compound administered at rate of 14 mf/flat measured 48 hr post treatment (reference value: 1.92 umol/m2/s); assay type: functional
Lolium multiflorum [14] = experiment: Effect on antioxidant enzyme system in Lolium multiflorum (Italian ryegrass) shoots assessed as glutathione reductase activity per mg protein compound administered at rate of 14 mf/flat measured 48 hr post treatment (reference value: 1.1 nmol/s per mg protein); assay type: functional
Lolium multiflorum [15] = experiment: Increase in glutathione S-transferase activity in Lolium multiflorum (Italian ryegrass) compound administered at rate of 14 mf/flat measured 72 hr post treatment; assay type: functional
Triticum aestivum [16] = experiment: Effect on antioxidant enzyme system in Triticum aestivum (wheat) shoots assessed as glutathione S-transferase activity per mg protein compound administered at rate of 14 mf/flat measured 24 hr post treatment (reference value: 2.7 nmol/s per mg protein); assay type: functional
Triticum aestivum [17] = experiment: Effect on antioxidant enzyme system in Triticum aestivum (wheat) shoots assessed as catalase activity per mg protein compound administered at rate of 14 mf/flat measured 72 hr post treatment (reference value: 0.13 nmol/s per mg protein); assay type: functional
Lolium multiflorum [18] = experiment: Effect on antioxidant enzyme system in Lolium multiflorum (Italian ryegrass) shoots assessed as dehydroascorbate reductase activity per mg protein compound administered at rate of 14 mf/flat measured 24 hr post treatment (reference value: 3.9 nmol/s per mg protein); assay type: functional
Triticum aestivum [19] = experiment: Effect on antioxidant enzyme system in Triticum aestivum (wheat) shoots assessed as ascorbate peroxidase activity per mg protein compound administered at rate of 14 mf/flat measured 72 hr post treatment (reference value: 17.2 nmol/s per mg protein); assay type: functional
Lolium multiflorum [20] = experiment: Effect on antioxidant enzyme system in Lolium multiflorum (Italian ryegrass) shoots assessed as ascorbate peroxidase activity per mg protein compound administered at rate of 14 mf/flat measured 48 hr post treatment (reference value: 11.3 nmol/s per mg protein); assay type: functional
Lolium multiflorum [21] = experiment: Effect on photosynthetic activity in Lolium multiflorum (Italian ryegrass) shoots assessed as leaf net photosynthesis rate measured by CO2 production compound administered at rate of 14 mf/flat measured 24 hr post treatment (reference value: 4.55 umol/m2/s); assay type: functional
Shoot [22] = experiment: Drug level in Triticum aestivum (wheat) shoots compound administered at rate of 14 mf/flat measured 72 hr post treatment by HPLC; assay type: ADME
Lolium multiflorum [23] = experiment: Increase in glutathione S-transferase activity in Lolium multiflorum (Italian ryegrass) compound administered at rate of 14 mf/flat measured 48 hr post treatment; assay type: functional
Shoot [24] = experiment: Drug level in Triticum aestivum (wheat) shoots compound administered at rate of 14 mf/flat measured 96 hr post treatment by HPLC; assay type: ADME
Lolium multiflorum [25] = experiment: Effect on antioxidant enzyme system in Lolium multiflorum (Italian ryegrass) shoots assessed as ascorbate peroxidase activity per mg protein compound administered at rate of 14 mf/flat measured 48 hr post treatment (reference value: 11.6 nmol/s per mg protein); assay type: functional
Lolium multiflorum [26] = experiment: Effect on MDA content in Lolium multiflorum (Italian ryegrass) shoots compound administered at rate of 14 mf/flat measured 72 hr post treatment (reference value: 0.67 uM/L); assay type: functional
Lolium multiflorum [27] = experiment: Increase in antioxidant enzyme system in Lolium multiflorum (Italian ryegrass) shoots assessed as increase in dehydroascorbate reductase activity compound administered at rate of 14 mf/flat measured 24 hr post treatment; assay type: functional
Triticum aestivum [28] = experiment: Effect on antioxidant enzyme system in Triticum aestivum (wheat) shoots assessed as catalase activity per mg protein compound administered at rate of 14 mf/flat measured 48 hr post treatment (reference value: 0.12 nmol/s per mg protein); assay type: functional
Shoot [29] = experiment: Drug level in Triticum aestivum (wheat) shoots compound administered at rate of 14 mf/flat measured 48 hr post treatment by HPLC; assay type: ADME
Lolium multiflorum [30] = experiment: Effect on antioxidant enzyme system in Lolium multiflorum (Italian ryegrass) shoots assessed as dehydroascorbate reductase activity per mg protein compound administered at rate of 14 mf/flat measured 48 hr post treatment (reference value: 3.7 nmol/s per mg protein); assay type: functional
Triticum aestivum [31] = experiment: Effect on MDA content in Triticum aestivum (wheat) shoots compound administered at rate of 14 mf/flat measured 48 hr post treatment (reference value: 0.053 uM/L); assay type: functional
Triticum aestivum [32] = experiment: Effect on antioxidant enzyme system in Triticum aestivum (wheat) shoots assessed as glutathione reductase activity per mg protein compound administered at rate of 14 mf/flat measured 48 hr post treatment (reference value: 1.1 nmol/s per mg protein); assay type: functional
Lolium multiflorum [33] = experiment: Increase in MDA content in Lolium multiflorum (Italian ryegrass) shoots compound administered at rate of 14 mf/flat measured 48 hr post treatment; assay type: functional

Compound | Activity (Lolium multiflorum [1]) [%] | Activity (Lolium multiflorum [2]) [%] | Activity (Lolium multiflorum [3]) [nmol/s/mg protein] | Drug uptake (Triticum aestivum [4]) [ppm] | Activity (Lolium multiflorum [5]) [nmol/s] | Activity (Triticum aestivum [6]) [nmol/s/mg protein] | Activity (Triticum aestivum [7]) [%] | Activity (Triticum aestivum [8]) [%] | Activity (Triticum aestivum [9]) [%] | Activity (Lolium multiflorum [10]) [nmol/s/mg protein] | Activity (Lolium multiflorum [11]) [nmol/s/mg protein] | Drug uptake (Lolium multiflorum [12]) [ppm] | Activity (Triticum aestivum [13]) [micromol/m2/s] | Activity (Lolium multiflorum [14]) [nmol/s/mg protein] | Activity (Lolium multiflorum [15]) [%] | Activity (Triticum aestivum [16]) [nmol/s/mg protein] | Activity (Triticum aestivum [17]) [nmol/s] | Activity (Lolium multiflorum [18]) [nmol/s/mg protein] | Activity (Triticum aestivum [19]) [nmol/s/mg protein] | Activity (Lolium multiflorum [20]) [nmol/s/mg protein] | further results
CCNc1nc(Cl)nc(NC(C)C)n1 [ATRAZINE] | 27 | 26 | 0.46 | 2.26 | 0.13 | 22 | 36 | 37 | 40 | 0.71 | 0.1 | 4.75 | 0.22 | 1 | 24 | 1.7 | 0.12 | 4.5 | 18 | 14.2 | Activity (Lolium multiflorum [21]): -0.61 micromol/m2/s; Drug uptake (Shoot [22]): 1.94 ppm; Activity (Lolium multiflorum [23]): 103%; Drug uptake (Shoot [24]): 1.94 ppm; Activity (Lolium multiflorum [25]): 12.2 nmol/s/mg protein; Activity (Lolium multiflorum [26]): 0.74 µM; Activity (Lolium multiflorum [27]): 15%; Activity (Triticum aestivum [28]): 0.11 nmol/s; Drug uptake (Shoot [29]): 5.67 ppm; Activity (Lolium multiflorum [30]): 3.6 nmol/s/mg protein; Activity (Triticum aestivum [31]): 0.53 µM; Activity (Triticum aestivum [32]): 1.1 nmol/s/mg protein; Activity (Lolium multiflorum [33]): 31%
O=[N+]([O-])c1ccc(Oc2ccc(C(F)(F)F)cc2[N+](=O)[O-])cc1 [FLUORODIFEN] | 72 | 35 | 0.67 | 0.44 | 0.11 | 22.9 | 36 | 15 | 46 | 1.65 | 0.11 | 0.72 | 2.13 | 1 | 35 | 2.3 | 0.14 | 4.2 | 17.2 | 15.3 | Activity (Lolium multiflorum [21]): 4.64 micromol/m2/s; Drug uptake (Shoot [22]): 0.2 ppm; Activity (Lolium multiflorum [23]): 371%; Drug uptake (Shoot [24]): 0.08 ppm; Activity (Lolium multiflorum [25]): 14 nmol/s/mg protein; Activity (Lolium multiflorum [26]): 0.74 µM; Activity (Lolium multiflorum [27]): 8%; Activity (Triticum aestivum [28]): 0.12 nmol/s; Drug uptake (Shoot [29]): 0.27 ppm; Activity (Lolium multiflorum [30]): 3.7 nmol/s/mg protein; Activity (Triticum aestivum [31]): 0.05 µM; Activity (Triticum aestivum [32]): 1.2 nmol/s/mg protein; Activity (Lolium multiflorum [33]): 14%
